Test results reported in patent US7709479B1, “Quinazoline derivatives and their use as pharmaceuticals” (AstraZeneca, priority 1999, dated 2010).

Assays:
MCF-7 cells [1] = test: In vitro cell proliferation assay, Assay 1 (CyQUANT cell density); assay type: cell-based; settings: Homo sapiens, MCF7, 72 h; MCF-7, 3 days with compound; read-out: concentration giving 50% inhibition of cell proliferation
Source text: (b) In Vitro Cell Proliferation Assay
These and other assays can be used to determine the ability of a test compound to inhibit the growth of adherent mammalian cell lines, for example the human tumour cell line MCF7.
Assay 1: MCF-7 (ATCC HTB-22) or other adherent cells were typically seeded at 1×10^3 cells per well (excluding the peripheral wells) in DMEM (Sigma Aldrich) without phenol red, plus 10% foetal calf serum, 1% L-glutamine and 1% penicillin/streptomycin in 96 well tissue culture treated clear plates (Costar). The following day (day 1), the media was removed from a no treatment control plate and the plate stored at −80° C. The remaining plates were dosed with compound (diluted from 10 mM stock in DMSO using DMEM (without phenol red, 10% FCS, 1% L-glutamine, 1% penicillin/streptomycin). Untreated control wells were included on each plate. After 3 days in the presence/absence of compound (day 4) the media was removed and the plates stored at −80° C. Twenty four hours later the plates were thawed at room temperature and cell density determined using the CyQUANT cell proliferation assay kit (c-7026/c-7027 Molecular Probes Inc.) according to manufacturers directions. Briefly, 200 μl of a cell lysis/dye mixture (10 μl of 20× cell lysis buffer B, 190 μl of sterile water, 0.25 μl of CyQUANT GR dye) was added to each well and the plates incubated at room temperature for 5 minutes in the dark. The fluorescence of the wells was then measured using a fluorescence microplate reader (gain 70, 2 reads per well, 1 cycle with excitation 485 nm and emission 530 nm using a CytoFluor plate reader (PerSeptive Biosystems Inc.)). The values from day 1 and day 4 (compound treated) together with the values from the untreated cells were used to determine the dilution range of a test compound that gave 50% inhibition of cell proliferation. Compound no. 1 in Table 1 was effective in this test at 8.03 μM and compound no. 101 in Table 4 was effective in this test at 1.06 μM. […] The optical density of the wells was then determined at 690 nm wavelength using a Titertek Multiscan plate reader. […]

MCF7 cells = test: In vitro cell cycle analysis assay (FACS DNA content); assay type: cell-based, human; settings: 24 hours
Description: This assay determines the ability of a test compound to arrest cells in specific phases of the cell cycle. Many different mammalian cell lines could be used in this assay and MCF7 cells are included here as an example. MCF-7 cells were seeded at 3×10^5 cells per T25 flask (Costar) in 5 ml DMEM (no phenol red 10% FCS, 1% L-glutamine 1% penicillin/streptomycin). Flasks were then incubated overnight in a humidified 37° C. incubator with 5% CO2. The following day 1 ml of DMEM (no phenol red 10% FCS, 1% L-glutamine 1% penicillin/streptomycin) carrying the appropriate concentration of test compound solubilised in DMSO was added to the flask. A no compound control treatments was also included (0.5% DMSO). The cells were then incubated for a defined time (usually 24 hours) with compound. After this time the media was aspirated from the cells and they were washed with 5 ml of prewarmed (37° C.) sterile PBSA, then detached from the flask by brief incubation with trypsin and followed by resuspension in 10 ml of 1% Bovine Serum Albumin (BSA, Sigma-Aldrich Co.) in sterile PBSA. The samples were then centrifuged at 2200 rpm for 10 min. The supernatant was aspirated and the cell pellet was resuspended in 200 μl of 0.1% (w/v) Tris sodium citrate, 0.0564% (w/v) NaCl, 0.03% (v/v) Nonidet NP40, [pH 7.6]. Propridium Iodide (Sigma Aldrich Co.) was added to 40 μg/ml and RNAase A (Sigma Aldrich Co.) to 100 μg/ml. The cells were then incubated at 37° C. for 30 minutes. The samples were centrifuged at 2200 rpm for 10 min, the supernatant removed and the remaining pellet (nuclei) resuspended in 200 μl of sterile PBSA. Each sample was then syringed 10 times using 21 gauge needle. The samples were then transferred to LPS tubes and DNA content per cell analysed by Fluorescence activated cell sorting (FACS) using a FACScan flow cytometer (Becton Dickinson). Typically 25000 events were counted and recorded using CellQuest v1.1 software (Verity Software). Cell cycle distribution of the population was calculated using Modfit software (Verity Software) and expressed as percentage of cells in G0/G1, S and G2/M phases of the cell cycle.

MCF-7 cells [2] = test: In vitro cell proliferation assay, Assay 2 (BrdU incorporation); assay type: cell-based; settings: Homo sapiens, MCF7; MCF-7, 48 hours with compound, 2 hour labelling; read-out: concentration giving 50% inhibition of BrdU incorporation

SMILES | IC50 (MCF-7 cells [1]) [nM] | % Cells in G1 (MCF7 cells; 2.12 μM) [%] | % Cells in G2/M (MCF7 cells; 2.12 μM) [%] | % Cells in S (MCF7 cells; 2.12 μM) [%] | IC50 (MCF-7 cells [2]) [nM] | % Cells in G1 (MCF7 cells; 25 μM) [%] | % Cells in G2/M (MCF7 cells; 25 μM) [%] | % Cells in S (MCF7 cells; 25 μM) [%]
COc1cc2ncnc(Nc3ccc(C(=O)NCc4ccc(F)cc4)cc3)c2cc1OC [Compound 557] | 1570 | – | – | – | – | – | – | –
COc1cc2c(Nc3ccc(NC(=O)c4ccccc4)cc3)ncnc2cc1OCCCN1CCOCC1 [Compound 101] | 1060 | 19.69 | 68.21 | 12.4 | 159 to 209 | – | – | –
COc1cc2ncnc(Nc3ccc(NC(=O)c4ccccc4)cc3)c2cc1OC [Compound 1] | 8030 | – | – | – | 1240 | 25.82 | 56.47 | 17.71
